Source: patent US11324767B2, “Drug combination treatments using bone-targeting therapeutics for bone and bone-related disease” (MBC Pharma, Inc., priority 2017, dated 2022)
Where two headings read alike, the source gives them in different places. Blank lines part the entries; values can stand above or below the compound they belong to.

Tests used:
[1] = in vivo MicroCT of bone in OS mouse model; conditions: in vivo MicroCT 22 days after starting treatment; 6 mg/kg IB or 14 mg/kg GEM-IB
Experimental: To ensure the health of mice throughout a longer study, doses were reduced to 6 mg/kg IB and equimolar doses of GEM-IB (14 mg/kg) and GEM (6 mg/kg) with 15 mg/kg DTX. Mice were implanted with the 143B-luc cells via intratibial injection and treatment started 4 days after implantation.

[2] = tolerability in mice (weight loss, nephrotoxicity)
Experimental: (§1) 143B-luc cells were then implanted into nude mice via intratibial injection, creating an orthotopic model for OS. The presence and growth of tumors was confirmed with in vivo imaging (Xenogen). Mice (N=8/treatment group) were then treated with 60 mg/kg GEM twice weekly and 15 mg/kg DTX once weekly, alone or in combination (15 mg/kg DTX with 20, 40 or 60 mg/kg GEM) and monitored for weight loss and tumor growth.
(§2) Tolerability for IB and GEM-IB was tested in a mouse model system. […] To ensure the health of mice throughout a longer study, doses were reduced to 6 mg/kg IB and equimolar doses of GEM-IB (14 mg/kg) and GEM (6 mg/kg) with 15 mg/kg DTX. Mice were implanted with the 143B-luc cells via intratibial injection and treatment started 4 days after implantation.
(§3) Mice were then treated with GEM-IB, GEM-IB with DTX, or the individual agents of GEM, DTX, or IB.

[3] = tested on: prostate cancer induced bone disease; test: in vivo model of prostate cancer induced bone disease
Experimental: (§4) MBC-11 was tested in recently completed phase I clinical trials in patients with CIBD.

[4] = MTD and tolerability of GEM-IB dosing regimens; assay type: in vivo
Text: The MTD of the conjugate of Gemcitabine-to-Ibandronate is lower than that of MBC-1. Therefore, a conjugate of Gemcitabine-to-Ibandronate can be administered at or below 5/mg/kg/day via a 2-hour infusion for up to 5 consecutive days and Xofigo administered at or below its standard of care dosing regimen.

[5] = mouse, in vivo
Experimental: as §1, §2, §3

[6] = tested on: 143B-luc cells; test: orthotopic OS model: Kaplan-Meier survival until euthanasia due to large tumor size; conditions: euthanized when largest tumor-laden leg diameter reached 10 mm above normal leg diameter (FIG. 4)
Text: Mice were euthanized when largest tumor-laden leg diameter reached 10 mm above normal leg diameter. […] Mice euthanized for weight loss are not indicated as deaths in this chart, and are indicated as tick marks on day euthanized.

[7] = tested on: 143B-luc; test: cell culture treatment of human OS cell line 143B-luc (IC50, Bliss analysis)
Experimental: This was determined in culture with a human OS cell line—143B-luc (143B cells were transfected to express luciferase (luc) for use in a mouse model system).

[8] = clinically established MTD of MBC-11; assay type: in vivo, Human; conditions: 2-hour infusion for up to 5 consecutive days
Experimental: The current clinically established MTD of MBC-11 indicates the method should be used where MBC-11 is administered at or below 5/mg/kg/day via a 2-hour infusion for up to 5 consecutive days and Xofigo is administered at or below the standard of care dosing regimen.

[9] = tested on: bone lesions; test: phase I clinical trials of MBC-11 in patients with CIBD, bone lesions imaged by 18F-FDG-PET/CT; conditions: 15 patients, after MBC-11 therapy
Experimental: as §4

[10] = 60 mg/kg GEM twice weekly alone, 15 mg/kg DTX once weekly alone, or 15 mg/kg DTX with 20 or 40 mg/kg GEM, N=8/group

SMILES: CCCCCN(C)CCC(O)(P(=O)(O)O)P(=O)(O)O [IB, ibandronate]
- bone volume density [1]: high
- trabecular number [1]: high
- weight loss ([2]; IB 12 mg/kg twice weekly): only minimal weight loss
- nephrotoxicity ([2]; at higher levels): possible nephrotoxicity
- tolerability ([2]; at lower doses): well tolerated

SMILES: CCCCCN(C)CCC(O)(P(=O)(O)O)P(=O)(O)OP(=O)(O)OC[C@H]1O[C@@H](n2ccc(N)nc2=O)C(F)(F)[C@@H]1O (stereo partly shown) [GEM-IB]
- activity compared to GEM-etidronate (GEM-ET), MBC-11 and cytarabine-IB ([3]; in vivo): more active
- metastases after treatment ([3]; in vivo): significantly reduced
- survival ([3]; study not designed for a survival endpoint): improved survival trend
- tolerability ([4]; Monday, Wednesday and Friday dosing for three weeks at twice the 6 mg/kg daily dose): well tolerated
- MTD ([4]; dosing for five sequential days): 6 mg/kg/day
- MTD compared with MBC-1 ([4]; in vivo): lower
- bone volume density [1]: high
- trabecular number [1]: high
- nephrotoxicity [5]: possible nephrotoxicity
- tolerability [5]: well tolerated
- day after treatment initiation from which mice were sacrificed [6]: 28 days

- IC50 ([7]; Homo sapiens): 9 nM
SMILES: Nc1ccn([C@@H]2O[C@H](CO)[C@@H](O)C2(F)F)c(=O)n1 [GEM, Gemcitabine]
- weight loss [2, 10]: did not exhibit any weight loss

- IC50 ([7]; 143B-luc cells in culture, individual drug agent): 72 nM
- reduction of IC50 of DTX ([7]; in the presence of 1 nM GEM versus DTX alone): 600 fold
- IC50 ([7]; read-out: IC50 of DTX in the presence of GEM, 143B-luc cells in culture, in the presence of 1 nM GEM): 0.12 nM
SMILES: CC(=O)O[C@@]12CO[C@@H]1C[C@H](O)[C@@]1(C)C(=O)[C@H](O)C3=C(C)[C@@H](OC(=O)[C@H](O)[C@@H](NC(=O)OC(C)(C)C)c4ccccc4)C[C@@](O)([C@@H](OC(=O)c4ccccc4)[C@H]21)C3(C)C [DTX, docetaxel]
- weight loss [2, 10]: did not exhibit any weight loss

SMILES: CC(O)(P(=O)(O)O)P(=O)(O)OP(=O)(O)OC[C@H]1O[C@@H](n2ccc(N)nc2=O)[C@@H](O)[C@@H]1O (stereo partly shown) [MBC-11]
- dose indicated by the clinically established MTD [8]: up to 5 /mg/kg/day
- bone lesions with a significant reduction (>25%) in glucose avidity ([9]; 206 bone lesions imaged (18F-FDG-PET/CT)): 111 lesions
- bone lesions significantly reduced in activity ([9]; 206 bone lesions imaged): 53.8%
